# Assay results reported in PubChem BioAssay AID328 (DTP/NCI, 2004).
# Toxic doses and inconclusive results are not listed. Non-standard residues stand in square brackets, D forms with d. Residues, ends and D or L forms follow the SMILES beside them. ξ: configuration not given here. ξK = NCCCCC(N)C(=O)O
# System: BDF1 mice, P388 leukemia ip, median survival T/C
# Experiment: NCI In Vivo Anticancer Drug Screen. Data for tumor model P388 Leukemia (intraperitoneal) in B6D2F1 (BDF1) mice
# Conditions: endpoint: median survival time, higher = longer survival
# How it was run: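 Survival ratio, drug arm over vehicle arm, in mice with a transplanted tumour.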
# [1] = dose: 100.0 mg/kg/injection, schedule: Q04DX003 (ip), vehicle: saline with Tween-80
# [2] = dose: 100.0 mg/kg/injection, schedule: Q01DX001 (ip), vehicle: saline
# [3] = dose: 200.0 mg/kg/injection, schedule: Q01DX001 (ip), vehicle: saline
# [4] = dose: 400.0 mg/kg/injection, schedule: Q01DX001 (ip), vehicle: saline
# [5] = dose: 6.25 mg/kg/injection, schedule: Q01DX009 (ip), vehicle: water
# [6] = dose: 12.5 mg/kg/injection, schedule: Q01DX009 (ip), vehicle: water
# [7] = dose: 100.0 mg/kg/injection, schedule: Q01DX009 (ip), vehicle: saline with Tween-80
# [8] = dose: 200.0 mg/kg/injection, schedule: Q01DX009 (ip), vehicle: saline with Tween-80
# [9] = dose: 50.0 mg/kg/injection, schedule: Q01DX009 (ip), vehicle: saline with Tween-80
# [10] = dose: 12.5 mg/kg/injection, schedule: Q01DX009 (ip), vehicle: saline with Tween-80
# [11] = dose: 25.0 mg/kg/injection, schedule: Q01DX009 (ip), vehicle: saline with Tween-80
# [12] = dose: 100.0 mg/kg/injection, schedule: Q04DX003 (ip), vehicle: water
compound,measurement,setting,value
C#CC(O)C(CC)CCCC (stereo not drawn),T/C,[1],100 % of control
same,T/C,"dose: 200.0 mg/kg/injection, schedule: Q04DX003 (ip), vehicle: saline with Tween-80",100 % of control
same,T/C,"dose: 400.0 mg/kg/injection, schedule: Q04DX003 (ip), vehicle: saline with Tween-80",100 % of control
N=C(N)N1CCNc2ccccc2C1,T/C,[1],99 % of control
NNC(=O)C1CCC(=O)O1 (stereo not drawn),T/C,"dose: 75.0 mg/kg/injection, schedule: Q01DX009 (ip), vehicle: saline with Tween-80",98 % of control
same,T/C,"dose: 150.0 mg/kg/injection, schedule: Q01DX009 (ip), vehicle: saline with Tween-80",91 % of control
same,T/C,"dose: 300.0 mg/kg/injection, schedule: Q01DX009 (ip), vehicle: saline with Tween-80",100 % of control
O=C(NCCc1c[nH]c2ccccc12)c1cccnc1,T/C,[2],104 % of control
same,T/C,[3],100 % of control
same,T/C,[4],95 % of control
NCCCCC(N)C(=O)NCC(=O)O (stereo not drawn) (H-[ξK]-Gly-OH),T/C,"dose: 50.0 mg/kg/injection, schedule: Q01DX005 (ip), vehicle: saline",95 % of control
same,T/C,"dose: 100.0 mg/kg/injection, schedule: Q01DX005 (ip), vehicle: saline",102 % of control
same,T/C,"dose: 200.0 mg/kg/injection, schedule: Q01DX005 (ip), vehicle: saline",88 % of control
CC(C)c1cccc(OS(=O)(=O)c2ccccc2[N+](=O)[O-])c1,T/C,"dose: 100.0 mg/kg/injection, schedule: Q04DX003 (ip), vehicle: saline sonified",100 % of control
same,T/C,"dose: 200.0 mg/kg/injection, schedule: Q04DX003 (ip), vehicle: saline sonified",100 % of control
same,T/C,"dose: 400.0 mg/kg/injection, schedule: Q04DX003 (ip), vehicle: saline sonified",100 % of control
CCCCCCCCCCCC(=O)NC1CC(O[C@H]2C[C@](O)(C(=O)CO)Cc3c(O)c4c(c(O)c32)C(=O)c2c(OC)cccc2C4=O)OC(C)C1O (stereo partly drawn),T/C,"dose: 0.78 mg/kg/injection, schedule: Q01DX009 (ip), vehicle: water",113 % of control
same,T/C,"dose: 3.13 mg/kg/injection, schedule: Q01DX009 (ip), vehicle: water",159 % of control
same,T/C,[5],168 % of control
same,T/C,[6],240 % of control
same,T/C,"dose: 25.0 mg/kg/injection, schedule: Q01DX009 (ip), vehicle: water",159 % of control
COc1ccc(OC)c(/C=N/N=C/c2cc(OC)ccc2OC)c1,T/C,"dose: 100.0 mg/kg/injection, schedule: Q01DX001 (ip), vehicle: saline with Tween-80",104 % of control
same,T/C,"dose: 200.0 mg/kg/injection, schedule: Q01DX001 (ip), vehicle: saline with Tween-80",100 % of control
same,T/C,"dose: 400.0 mg/kg/injection, schedule: Q01DX001 (ip), vehicle: saline with Tween-80",104 % of control
Nc1cc(=O)[nH][nH]1,T/C,[7],104 % of control
same,T/C,[8],109 % of control
same,T/C,"dose: 400.0 mg/kg/injection, schedule: Q01DX009 (ip), vehicle: saline with Tween-80",122 % of control
O=C1NC(=O)N(c2ccccc2)C(=O)/C1=C/c1ccccc1,T/C,"dose: 50.0 mg/kg/injection, schedule: Q01DX001 (ip), vehicle: saline sonified",110 % of control
same,T/C,"dose: 100.0 mg/kg/injection, schedule: Q01DX001 (ip), vehicle: saline sonified",105 % of control
same,T/C,"dose: 200.0 mg/kg/injection, schedule: Q01DX001 (ip), vehicle: saline sonified",100 % of control
CC(C)(C)OC(=O)NCC(=O)NC(Cc1c[nH]c2ccccc12)C(=O)O (stereo not drawn),T/C,"dose: 50.0 mg/kg/injection, schedule: Q01DX005 (ip), vehicle: saline with Tween-80",102 % of control
same,T/C,"dose: 100.0 mg/kg/injection, schedule: Q01DX005 (ip), vehicle: saline with Tween-80",95 % of control
same,T/C,"dose: 200.0 mg/kg/injection, schedule: Q01DX005 (ip), vehicle: saline with Tween-80",95 % of control
CC(=O)[C@H]1CC[C@H]2[C@@H]3CCC4=CC(=O)[C@H](C)C[C@]4(C)[C@H]3C(=O)C[C@]12C,T/C,[7],90 % of control
same,T/C,[8],95 % of control
CC#CC#C/C=C1\OC2(CCCCO2)C(OC(C)=O)C1OC(C)=O (stereo not drawn),T/C,"dose: 10.0 mg/kg/injection, schedule: Q01DX009 (ip), vehicle: Klucel (hydroxypropylcellulose) (HPC)",98 % of control
same,T/C,"dose: 20.0 mg/kg/injection, schedule: Q01DX009 (ip), vehicle: Klucel (hydroxypropylcellulose) (HPC)",98 % of control
same,T/C,"dose: 40.0 mg/kg/injection, schedule: Q01DX009 (ip), vehicle: Klucel (hydroxypropylcellulose) (HPC)",115 % of control
Cc1nnc2sc3c(Cl)c4nn5c(C)nnc5sc4c(Cl)c3nn12,T/C,[9],92 % of control
same,T/C,[7],100 % of control
CC(C)C1(C(=O)O)SCCCS1,T/C,"dose: 50.0 mg/kg/injection, schedule: Q04DX003 (ip), vehicle: alcohol",115 % of control
same,T/C,"dose: 100.0 mg/kg/injection, schedule: Q04DX003 (ip), vehicle: alcohol",115 % of control
same,T/C,"dose: 200.0 mg/kg/injection, schedule: Q04DX003 (ip), vehicle: alcohol",105 % of control
same,T/C,"dose: 400.0 mg/kg/injection, schedule: Q04DX003 (ip), vehicle: alcohol",105 % of control
CCCCN(C)N=Nc1ccc(CCCC(=O)OCC)cc1,T/C,[10],91 % of control
same,T/C,[11],100 % of control
same,T/C,[9],117 % of control
same,T/C,"dose: 132.0 mg/kg/injection, schedule: Q04DX003 (ip), vehicle: saline",95 % of control
same,T/C,"dose: 200.0 mg/kg/injection, schedule: Q04DX003 (ip), vehicle: saline",156 % of control
same,T/C,"dose: 300.0 mg/kg/injection, schedule: Q04DX003 (ip), vehicle: saline",121 % of control
O=S(=O)(O)O,T/C,[5],90 % of control
same,T/C,[10],124 % of control
same,T/C,[6],100 % of control
same,T/C,"dose: 25.0 mg/kg/injection, schedule: Q04DX003 (ip), vehicle: water",90 % of control
same,T/C,[12],90 % of control
CCOC(=O)C1(c2ccccc2)C(=O)Oc2ccccc21 (stereo not drawn),T/C,[11],100 % of control
same,T/C,[9],98 % of control
same,T/C,[7],108 % of control
same,T/C,[8],122 % of control
CC1(C)CC2(C)OC2C2(C1)N=NC(=Nc1ccccc1)O2 (stereo not drawn),T/C,[9],117 % of control
CCCOC(=O)C1(N)CCCC1,T/C,[7],100 % of control
same,T/C,[8],90 % of control
O=C(O)/C=N/NS(=O)(=O)/C=C/c1ccccc1,T/C,"dose: 50.0 mg/kg/injection, schedule: Q01DX009 (ip), vehicle: other",155 % of control
same,T/C,"dose: 100.0 mg/kg/injection, schedule: Q01DX009 (ip), vehicle: other",186 % of control
CCC1C/C(=C2/NC3CCCCC3NC2=O)C(=O)O1 (stereo not drawn),T/C,"dose: 25.0 mg/kg/injection, schedule: Q04DX002 (ip), vehicle: saline with Tween-80",101 % of control
same,T/C,"dose: 50.0 mg/kg/injection, schedule: Q04DX002 (ip), vehicle: saline with Tween-80",98 % of control
same,T/C,"dose: 100.0 mg/kg/injection, schedule: Q04DX002 (ip), vehicle: saline with Tween-80",88 % of control
O=S1(=O)CC(S(=O)(=O)O)C(S(=O)(=O)O)C1 (stereo not drawn),T/C,"dose: 50.0 mg/kg/injection, schedule: Q04DX003 (ip), vehicle: Klucel (hydroxypropylcellulose) (HPC)",100 % of control
same,T/C,[2],108 % of control
same,T/C,"dose: 100.0 mg/kg/injection, schedule: Q04DX003 (ip), vehicle: Klucel (hydroxypropylcellulose) (HPC)",100 % of control
same,T/C,[3],100 % of control
same,T/C,"dose: 200.0 mg/kg/injection, schedule: Q04DX003 (ip), vehicle: Klucel (hydroxypropylcellulose) (HPC)",100 % of control
same,T/C,[4],108 % of control
CCCCN(CCCC)C(=O)C1C=C2c3cccc4[nH]cc(c34)CC2N(C)C1 (stereo not drawn),T/C,"dose: 50.0 mg/kg/injection, schedule: Q01DX009 (ip), vehicle: water",105 % of control
same,T/C,"dose: 100.0 mg/kg/injection, schedule: Q01DX009 (ip), vehicle: water",94 % of control
same,T/C,[12],105 % of control
same,T/C,"dose: 200.0 mg/kg/injection, schedule: Q01DX009 (ip), vehicle: water",114 % of control
same,T/C,"dose: 200.0 mg/kg/injection, schedule: Q04DX003 (ip), vehicle: water",94 % of control
same,T/C,"dose: 400.0 mg/kg/injection, schedule: Q01DX009 (ip), vehicle: water",109 % of control
same,T/C,"dose: 400.0 mg/kg/injection, schedule: Q04DX003 (ip), vehicle: water",97 % of control
CCSc1nc2ccc(Nn3nnnc3-c3ccccc3)cc2s1,T/C,"dose: 12.5 mg/kg/injection, schedule: Q01DX009 (ip), vehicle: Klucel (hydroxypropylcellulose) (HPC)",272 % of control
same,T/C,"dose: 25.0 mg/kg/injection, schedule: Q01DX009 (ip), vehicle: Klucel (hydroxypropylcellulose) (HPC)",98 % of control
same,T/C,"dose: 50.0 mg/kg/injection, schedule: Q01DX009 (ip), vehicle: Klucel (hydroxypropylcellulose) (HPC)",118 % of control
